Calls of active or inactive are those of the source.
Columns and labels:
[1] = target: Troponin, cardiac muscle (Homo sapiens, UniProt P19429+P45379+P63316); test: Fluorescence-based biochemical high throughput dose response assay for activators of the calcium sensitivity of cardiac Regulated Thin Filaments (RTF). [Related pubchem assays (depositor defined):AID493008, AID493018, AID504382, AID504383]; format: protein-complex assay
[2] = target: T1, Heat shock factor protein 1 (Mus musculus, UniProt P38532); test: inhibition of MG132-induced HSE-luciferase signal, confirmation, cell-based, NIH3T3, luminescence, dose retest (AID 2382); format: functional;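 further: NIH3T3 fibroblasts with HSF1-driven luciferase reporter stressed by proteasome inhibitor MG132; luminescence from HSF1-driven luciferase expression after 8 hours of MG132 stress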
T1 sequence (P38532 whole entry): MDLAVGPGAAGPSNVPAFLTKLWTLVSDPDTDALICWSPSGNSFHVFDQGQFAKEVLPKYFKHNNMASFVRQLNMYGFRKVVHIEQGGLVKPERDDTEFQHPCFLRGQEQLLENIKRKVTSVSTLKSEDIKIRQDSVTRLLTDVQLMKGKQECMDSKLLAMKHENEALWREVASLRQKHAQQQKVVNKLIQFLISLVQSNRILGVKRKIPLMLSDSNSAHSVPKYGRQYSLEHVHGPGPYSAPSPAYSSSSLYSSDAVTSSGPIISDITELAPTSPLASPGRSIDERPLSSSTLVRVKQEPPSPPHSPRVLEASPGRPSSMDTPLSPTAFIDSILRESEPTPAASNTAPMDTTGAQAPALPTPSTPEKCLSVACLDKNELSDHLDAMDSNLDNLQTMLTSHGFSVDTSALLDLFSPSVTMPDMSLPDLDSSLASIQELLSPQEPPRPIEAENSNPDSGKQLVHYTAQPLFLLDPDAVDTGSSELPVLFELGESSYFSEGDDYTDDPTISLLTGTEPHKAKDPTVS

[3] = system: HEK293; test: cells; details: Homo sapiens
[4] = system: HEK293; test: cells; format: functional, cell-based; details: Homo sapiens
[5] = system: HEK293; test: cells; details: Homo sapiens; remark: listed apart in the source
[6] = system: HEK293; test: NOD1 signaling inhibitors, primary screen, cell-based, luminescence, uHTS (AID 1578); format: functional; details: Homo sapiens
[7] = system: HEK293; test: NOD2 signaling inhibitors in MDP-stimulated cells, cell-based, uHTS, luminescence (AID 2001); format: functional; details: Homo sapiens
[8] = system: HEK293; test: cells; format: functional, cell-based; details: Homo sapiens; remark: listed apart in the source
[9] = growth suppression of PTEN-null colon cells, dose response, cell-based, HCT116 PTEN knockout (AID 1047); format: functional;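 further: HCT116 colon tumor cells with PTEN knocked out; cells exposed to compound for 60 hours before readout; potency for loss of cell viability measured by luminescence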
[10] = growth suppression of beta-catenin-knockout colon cells, dose response, cell-based, HCT116, human colon tumor (AID 1045); format: functional;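 further: HCT116 colon tumor cells with beta catenin knocked out; cells exposed to compound for 60 hours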
[11] = system: H9c2; test: cells; format: functional, cell-based; details: Rattus norvegicus, H9c2, Myocardium;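 further: confirmatory concentration-response retest of ultra-high-throughput screening hits for modulation of myocardial damage; cell death induced by hydrogen peroxide oxidative stress; compound pretreatment for 60 min then peroxide exposure for 2 h; potency is for protecting the cells against peroxide damage rather than for killing them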

SMILES: COc1ccc(CNC(=O)c2sc(=S)n(-c3ccccc3)c2N)cc1
- EC50 [1]: > 71.5 µM (inactive)
- EC50 [2]: > 195 µM (not active)

SMILES: Cc1ccc(C(=O)Nc2ccc3c(c2)ncn3C)cc1
- EC50 [1]: > 71.4 µM (inactive)

SMILES: Cc1cc(C)cc(NC(=O)/C=C/c2ccc([N+](=O)[O-])s2)c1
- EC50 [3]: > 59.7 µM (inactive)
- IC50 [4]: > 20 µM (inactive)
- EC50 [5]: > 59.7 µM (inactive)
- EC50 [6]: > 20 µM (inactive)
- IC50 [7]: > 20 µM (inactive)
- IC50 [8]: 9.79 µM (active)
- EC50 [9]: 3.75 µM (active)
- EC50 [10]: 6.03 µM (active)

SMILES: S=C(Nc1ccc(N2CCOCC2)cc1)Nc1ccc2nc(-c3ccco3)c(-c3ccco3)nc2c1
- EC50 [1]: 2.92 µM (active)
- IC50 [11]: > 79 µM (inactive)

— ChEMBL document CHEMBL1201862, “PubChem BioAssay data set” (2004)
